Here are results for three compounds from US8222218B2, “Cyclopropanated carbohydrates” (Seton Hall University, priority 2008, dated 2012).

Data set [1] has as its target T1, cloned, human D1 receptor (Homo sapiens, UniProt P21728).
T1 construct: expressed in transfected cells
Briefly: Radioligand competition binding assay, [3H]SCH23390. An excerpt:
Receptor binding profiles were provided by the National Institute of Mental Health's Psychoactive Drug Screening Program, Contract # N01 MH32004 (NIMH PDSP) The NIMH PDSP is directed by Bryan L. Roth M. D., Ph.D. at the University of North Carolina at Chapel Hill and Project Officer Jamie Driscol at NIMH, Bethesda Md., USA. Protocols for receptor-based assays by the PDSP may be found on the website: http://pdsp.med.unc.edu/pdspw/binding.php and http://pdsp.med.unc.edu/pdspw/function.php (Apr. 30, 2008).
Radioligand competition binding assays were performed as previously described (Rothman, R. B., Baumann, M. H., Savage, J. E., Rauser, L., McBride, Hufeisen, S. J., Roth B. L. Circulation (2000) 102:2836-2841) for Compounds 7 and 16. Briefly, test compounds were dissolved to 10 mM in 100% DMSO, then diluted to the desired concentrations (spanning seven orders of magnitude) in Dopamine Binding Buffer (50 mM NaCl, 50 mM HEPES, 5 mM MgCl2, 0.5 mM EDTA, pH 7.4). Diluted test and reference compounds were added to wells containing radioligand ([^3H]SCH23390, 0.3 nM final concentration) and buffer, then membrane fractions from cells stably expressing cloned, human D1 or D5 receptors were added and binding was allowed to equilibrate at room temperature for 1.5 hours. At equilibrium, reactions were filtered (using a FilterMate 96-well harvester, PerkinElmer) onto GF-A glass fiber filters (Wallac) and allowed to dry. Meltilex scintillant (Wallac) was melted onto the dry filters, and then allowed to cool. Filters were then sealed in plastic bags and counted on a Wallac TriLux microbeta counter.
Raw data (dpm) representing total radioligand binding (i.e., specific+non-specific binding) were plotted as a function of the logarithm of the molar concentration of the competitor (i.e., test or reference compound). Non-linear regression of the normalized (i.e., percent radioligand binding compared to that observed in the absence of test or reference compound) raw data is performed in Prism 4.0 (GraphPad Software) using the built-in three parameter logistic model describing ligand competition binding to radioligand-labeled sites: y=bottom+[(top−bottom)/(1+10^x−logIC50)] where bottom equals the residual radioligand binding measured in the presence of 10 μM reference compound (i.e., non-specific binding) and top equals the total radioligand binding observed in the absence of competitor. The log IC50 (i.e., the log of the ligand concentration that reduces radioligand binding by 50%) is thus estimated from the data and used to obtain the Ki by applying the Cheng-Prusoff approximation: Ki=IC50/(1+[ligand]/KD) where [ligand] equals the assay radioligand concentration and KD equals the affinity constant of the radioligand for the target receptor.

The test system of the next data set is MES-induced seizures. The experiment in a line: Maximal Electroshock Seizure (MES) test, mice. Type of data set: in vivo. The following applies: Mus musculus, ip, mice, i.p. Summed up:
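Seizures were induced by a 60 Hz corneal current for 2 s (50 mA in CF1 mice, 150 mA in Sprague-Dawley rats). Mice received 30, 100 or 300 mg/kg i.p. in 0.5% methylcellulose and were tested at several intervals; rats received 30 mg/kg p.o. Protection means abolition of hind-limb tonic extension.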

For data set [2], the system named is metrazole-induced clonic seizures. The experiment in a line: Subcutaneous Metrazole Seizure Threshold Test (scMET), mice. Type of data set: in vivo. The following applies: Mus musculus, sc, mice. The method, boiled down: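 CF1 mice dosed with test compound at 30, 100 and 300 mg/kg; Sprague-Dawley rats at 50 mg/kg p.o. At compound TPE, metrazole at CD97 (85 mg/kg in mice) injected s.c. in the neck. Animals observed 30 min; endpoint is a 3-5 s clonic spasm episode.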

Data set [3] in a line: Acute toxicity, minimal motor impairment (rotorod), mice. Type of data set: in vivo. To be noted: for TOX 30 0.5 h (animals toxic/tested) / TOX 30 4 h (animals toxic/tested) / TOX 100 0.5 h (animals toxic/tested) / TOX 100 4 h (animals toxic/tested) / TOX 300 0.5 h (animals toxic/tested) / TOX 300 4 h (animals toxic/tested): mice, rotorod; for TOX 30 0.5 h (animals toxic/tested) / TOX 30 4 h (animals toxic/tested): 30 mg/kg; for TOX 100 0.5 h (animals toxic/tested) / TOX 100 4 h (animals toxic/tested): 100 mg/kg; for TOX 300 0.5 h (animals toxic/tested) / TOX 300 4 h (animals toxic/tested): 300 mg/kg. The method, boiled down:
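Mice placed on a rod rotating at 6 rpm; a compound is scored toxic when the animal falls off three times within 1 min. In rats, minimal motor deficit is scored as ataxia, an abnormal uncoordinated gait.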

Another data set has as its system seizures. Briefly: In vivo anticonvulsant screening (MES, scMET, minimal clonic seizure), summary in words. Details: species or system rat, mouse. The following applies: summary of Table 2. How it is done:
(§1) Toxicity was measured using the minimal motor impairment test described below.
The MES test is a model for generalized tonic-clonic seizures. The seizures are highly reproducible and electrophysiologically consistent with human seizures. The test provides information about a compound's ability to prevent the spread of seizure when all neuronal circuits of the brain are maximally active. 60 Hz of alternating current (50 mA in mice, 150 mA in rats) is applied for 2 seconds via corneal electrodes that have been treated with an electrolyte solution containing an anesthetic (0.5% tetracaine HCl). Mice are tested at a variety of intervals after an i.p. injection of […] solution of the test compound (commonly in a 0.5% solution of methylcellulose) at 30, 100, and 300 mg/kg doses. Rats are examined after a 30 mg/kg (per os, p.o.) dose that is applied in a volume of 0.04 mL/g. An animal is considered “protected” from MES-induced seizures upon removal of the hind limb extensor component of the seizure.
The subcutaneous injection of metrazole, which is a convulsant, produces clonic seizures in laboratory animals. The scMET test is designed to identify compounds that raise the seizure threshold of an animal. Mice are pretreated with test compound at 30, 100, and 300 mg/kg doses in a similar manner to the MES test. Rats are treated with a 50 mg/kg dose (p.o.). At the previously determined TPE of the test compound, the dose of metrazole that will induce convulsions in 97% of animals (CD97: 85 mg/kg mice) is injected into the loose fold of the skin in the midline of the neck. The animals are placed in isolation cages to minimize stress and observed for the next 30 minutes for the presence or absence of seizures. An episode of clonic spasms (approximately 3-5 seconds) of the fore and/or hindlimbs, jaws or vibrissae is taken as the endpoint.
(§2) The minimal clonic seizure (6 Hz) test, like the MES test, is used to assess a compound's ability to protect against electrically-induced seizures. The minimal clonic (6 Hz) seizure test uses a lower frequency (6 Hz) and a longer duration of stimulation (3 seconds) than the MES test. Test compounds are pre-administered to mice via i.p. injection. At varying times, individual mice (four per time point) are challenged with sufficient current via corneal electrodes to elicit a psychomotor seizure in 97% of animals (32 mA for 3 second). Untreated mice will display seizure characterized by a minimal clonic phase followed by stereotyped, automatistic behaviors described originally as being similar to the aura of human patients with partial seizures. Animals not displaying this behavior are considered to be protected.

Data set [4] has as its system electrically-induced psychomotor seizure (6 Hz). The experiment in a line: Minimal Clonic Seizure (6 Hz) test, mice. To be noted: i.p., 100 mg/kg. Type of data set: in vivo. As to the method:
as §1, §2
Male and female albino CF1 mice (18-25 g, Charles River, Portage, Mich.) and male albino Sprague-Dawley rats (275-300 g, kindling test; 100-150 g all other tests; Charles River, Raleigh, N.C.) were used as experimental animals.

Setting [5] is: 0.5 h, read-out: MES 30 0.5 h (animals protected/tested).
[6] abbreviates: 4 h, read-out: MES 30 4 h (animals protected/tested).
Setting [7] is: 0.5 h, read-out: MES 100 0.5 h (animals protected/tested).
Setting [8] is: 4 h, read-out: MES 100 4 h (animals protected/tested).
[9] abbreviates: 0.5 h, read-out: MES 300 0.5 h (animals protected/tested).
[10] abbreviates: 4 h, read-out: MES 300 4 h (animals protected/tested).
[11] abbreviates: 0.4 h, read-out: scMET 30 0.4 h (animals protected/tested).
The mark [12] stands for this setting: 0.5 h, read-out: scMET 30 0.5 h (animals protected/tested).
[13] abbreviates: 0.4 h, read-out: scMET 100 0.4 h (animals protected/tested).
The mark [14] stands for this setting: 0.5 h, read-out: scMET 100 0.5 h (animals protected/tested).
Setting [15] is: 0.4 h, read-out: scMET 300 0.4 h (animals protected/tested).
Setting [16] is: 0.5 h, read-out: scMET 300 0.5 h (animals protected/tested).

Like-named read-outs stand apart in the source and are kept apart here.

T1 sequence (P21728 whole entry): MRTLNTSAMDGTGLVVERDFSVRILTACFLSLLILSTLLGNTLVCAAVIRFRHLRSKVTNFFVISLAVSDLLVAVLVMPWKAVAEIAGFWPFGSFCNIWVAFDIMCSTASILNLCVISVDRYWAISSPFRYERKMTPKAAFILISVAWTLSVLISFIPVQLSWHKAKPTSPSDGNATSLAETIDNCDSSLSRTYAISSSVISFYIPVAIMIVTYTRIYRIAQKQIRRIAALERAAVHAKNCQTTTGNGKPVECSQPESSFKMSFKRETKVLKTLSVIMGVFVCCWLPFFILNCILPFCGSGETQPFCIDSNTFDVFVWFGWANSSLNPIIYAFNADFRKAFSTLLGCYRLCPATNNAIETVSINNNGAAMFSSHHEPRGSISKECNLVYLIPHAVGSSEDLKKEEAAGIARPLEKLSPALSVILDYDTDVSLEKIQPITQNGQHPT

In data set [1] (D1 dopamine receptor, [3H]SCH23390 0.3 nM, Cheng-Prusoff), `CCOC(=O)C1[C@H]2O[C@@H]3COC(C)(C)O[C@H]3C(=NO)[C@@H]12` (stereo partly drawn) [Compound 7, ethyl (4aR,5aS,6aR,7aS)-7-(hydroxyimino)-2,2-dimethylhexahydro-4H-cyclopropa[5,6]pyrano[3,2-d][1,3]dioxine-6-carboxylate] displayed a Ki of 6.23 µM. Further, in data set [1] (radioligand competition binding), the “inhibition of the D1 dopamine receptor” value is “significant inhibition”. In addition, the responders at 30 mg/kg (in the data set on MES-induced seizures (setting [5]); with MES-induced seizures (setting [6]); in data set [2] (setting [11]); in data set [2] (setting [12])) was 0% throughout. In addition, the responders at 100 mg/kg (in the data set on MES-induced seizures (setting [7]); in the data set with MES-induced seizures (setting [8]); in data set [2] (setting [13]); in data set [2] (setting [14])) was 0% in each case. Moreover, the responders at 300 mg/kg (in the data set with MES-induced seizures (setting [9]); with MES-induced seizures (setting [10]); in data set [2] (setting [15]); in data set [2] (setting [16])) was 0% throughout. In addition, in data set [3], the “TOX 30 0.5 h (animals toxic/tested)” value was 0/4. Moreover, the “TOX 30 4 h (animals toxic/tested)” value in data set [3] was 0/2. Also, in data set [3], the “TOX 100 0.5 h (animals toxic/tested)” value is 1/8. Besides, the “TOX 100 4 h (animals toxic/tested)” value in data set [3] is listed as 0/4. Also, in data set [3], the “TOX 300 0.5 h (animals toxic/tested)” value is reported as 3/4. For the same compound, the “TOX 300 4 h (animals toxic/tested)” value in data set [3] is given as 1/2.
In the case of `CCOC(=O)C1[C@@H]2[C@@H](OS(N)(=O)=O)[C@@H]3O[C@H](c4ccc(OC)cc4)OC[C@H]3O[C@H]12` (stereo partly drawn) [Compound 17b, ethyl (2R,4aR,5aS,6aS,7R,7aR)-2-(4-methoxyphenyl)-7(sulfamoyloxy)hexahydro-4H-cyclopropa[5,6]pyrano[3,2-d][1,3]dioxine-6-carboxylate], the “anticonvulsant activity” value in the data set on seizures was “anticonvulsant activity”. Further, the “6 Hz 100 0.25 h (animals protected/tested)” value in data set [4] was 0/4. Besides, in data set [4], the “6 Hz 100 0.5 h (animals protected/tested)” value is 1/4. Moreover, in data set [4], the “6 Hz 100 2 h (animals protected/tested)” value is 1/4. The responders at 30 mg/kg (with MES-induced seizures (setting [5]); in the data set on MES-induced seizures (setting [6]); in data set [2] (setting [11]); in data set [2] (setting [12])) was 0% in each case. In addition, the responders at 100 mg/kg (in the data set with MES-induced seizures (setting [7]); with MES-induced seizures (setting [8]); in data set [2] (setting [13]); in data set [2] (setting [14])) was 0% throughout. Moreover, the responders at 300 mg/kg (in the data set with MES-induced seizures (setting [9]); with MES-induced seizures (setting [10]); in data set [2] (setting [15]); in data set [2] (setting [16])) was 0% in each case. In addition, the “TOX 30 0.5 h (animals toxic/tested)” value in data set [3] is 0/4. Also, the “TOX 30 4 h (animals toxic/tested)” value in data set [3] is on record as 0/2. Further, in data set [3], the “TOX 100 0.5 h (animals toxic/tested)” value is listed as 0/8. Moreover, the “TOX 100 4 h (animals toxic/tested)” value in data set [3] was 0/4. For the same compound, in data set [3], the “TOX 300 0.5 h (animals toxic/tested)” value is on record as 2/4. For the same compound, in data set [3], the “TOX 300 4 h (animals toxic/tested)” value is on record as 0/2.
For `CCOC(=O)C1[C@@H]2[C@@H](O)[C@@H]3O[C@H](c4ccc(F)cc4F)OC[C@H]3O[C@H]12` (stereo partly drawn) [Compound 20d, Ethyl (2R,4aR,5aS,6aR,7R,7aS)-2-(2,4-difluorophenyl)-7-hydroxyhexahydro-4H-cyclopropa[5,6]pyrano[3,2-d][1,3]dioxine-6-carboxylate], the “anticonvulsant activity” value in the data set with seizures is on record as “exhibited activity”. In addition, the “6 Hz 100 0.25 h (animals protected/tested)” value in data set [4] is 1/4. In addition, in data set [4], the “6 Hz 100 0.5 h (animals protected/tested)” value is listed as 0/4. The “6 Hz 100 2 h (animals protected/tested)” value in data set [4] was 0/4. The responders at 30 mg/kg (with MES-induced seizures (setting [5]); in the data set with MES-induced seizures (setting [6]); in data set [2] (setting [11]); in data set [2] (setting [12])) was 0% throughout. Moreover, the responders at 100 mg/kg (in the data set on MES-induced seizures (setting [7]); in the data set on MES-induced seizures (setting [8]); in data set [2] (setting [13]); in data set [2] (setting [14])) was 0% throughout. Further, the responders at 300 mg/kg (in the data set with MES-induced seizures (setting [9]); in the data set with MES-induced seizures (setting [10]); in data set [2] (setting [15]); in data set [2] (setting [16])) was 0% in each case. In addition, in data set [3] (at same time point / dose as observed activity), the “minimal motor impairment” value is listed as “minimal motor impairment at the same dose”. Also, in data set [3], the “TOX 30 0.5 h (animals toxic/tested)” value is on record as 1/4. Also, in data set [3], the “TOX 30 4 h (animals toxic/tested)” value is given as 0/2. In addition, the “TOX 100 0.5 h (animals toxic/tested)” value in data set [3] is recorded as 1/8. The “TOX 100 4 h (animals toxic/tested)” value in data set [3] is on record as 0/4. In addition, the “TOX 300 0.5 h (animals toxic/tested)” value in data set [3] was 2/4. In data set [3], the “TOX 300 4 h (animals toxic/tested)” value is 1/2.
